Experimental data as given in publication PMC11285977, “Identification of drug-like molecules targeting the ATPase activity of dynamin-like EHD4” (PLOS ONE, 2024).
Where two headings read alike, the source gives them in different places.

Assays:
EHD4^ΔN [1] = target: T1, EHD4^ΔN (Mus musculus, UniProt Q9EQP2); assay: Malachite green (MLG)-based liposome-stimulated ATPase assay of EHD4ΔN; type: biochemical; details: read-out: IC50, EHD4ΔN ATPase inhibition
T1 construct: mouse EHD4 (Uniprot Q1MWP8, residues 22–541, EHD4^ΔN); His6 followed by PreScission cleavage site (N, cleaved yes); made in house; host or cells: E. coli BL21 DE3 Rosetta
T1 sequence (Q9EQP2 22-541): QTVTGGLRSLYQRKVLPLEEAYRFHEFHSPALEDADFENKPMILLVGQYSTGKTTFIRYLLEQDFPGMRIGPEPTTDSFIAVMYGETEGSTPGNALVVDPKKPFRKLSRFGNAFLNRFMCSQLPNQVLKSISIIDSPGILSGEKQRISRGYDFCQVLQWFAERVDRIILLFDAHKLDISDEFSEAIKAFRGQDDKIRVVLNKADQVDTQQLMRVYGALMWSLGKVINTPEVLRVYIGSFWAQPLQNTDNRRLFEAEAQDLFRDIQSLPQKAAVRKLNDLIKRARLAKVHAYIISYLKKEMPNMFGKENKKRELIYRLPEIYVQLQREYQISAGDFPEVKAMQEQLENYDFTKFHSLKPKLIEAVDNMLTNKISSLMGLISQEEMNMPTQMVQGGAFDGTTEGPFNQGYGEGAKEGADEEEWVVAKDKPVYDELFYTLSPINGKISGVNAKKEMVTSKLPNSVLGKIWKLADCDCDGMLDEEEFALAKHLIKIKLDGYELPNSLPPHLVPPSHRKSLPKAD
Method: ATPase assays were performed in a 384 well plate at 25°C (if not otherwise indicated). The assay buffer contained 20 mM HEPES, 150 mM KCl, 0.5 mM MgCl2, pH 7.5. 30 μM of ATP was mixed with 50 μg/ml DOPS in assay buffer. Reaction was started by adding 200 nM EHD4^ΔN. At any given time-point, 25 μl of the reaction was taken out and mixed with 75 μl of the dye in a 384 well plate. The reaction gets quenched by the addition of the dye which denatures the protein. Absorbance at 650 nm was measured in a plate reader (Tecan, Infinite M200).
Screening was conducted at the Screening Unit of the Leibniz-Forschungsinstitut für Molekulare Pharmakologie (FMP) using a kinase drug library and the ‘diversity set’. 15,840 compounds were tested as singlets in 384 well plate format. A master mix (MM) was prepared in the assay buffer to have a final ATP concentration of 30 μM and DOPS concentration of 50 μg/ml. A 10 mM DMSO solution of the compounds was serially diluted, first with DMSO and then with the MM to a final concentration of 10 μM (1% of DMSO), using the Tecan-Evo workstation (pipetting robot). EHD4^ΔN (200 nM) was pipetted using multi-drop dispensing cassette. To have homogenous enzymatic activity, the plates were vortexed using a microplate mixer at 2,000 rpm for 10 s. The plates were incubated for 15 min at room temperature and 75 μl of MLG dye added with the cassette. The plates were measured in a Perkin Elmer Envision plate reader.
Data were analyzed with an automated pipeline using KNIME software. For the individual plates, the corresponding Z´ values and SNR were calculated. Compared to the control´s absorbance at 650 nm (Abs650), compounds were classified as inhibitors if the %Abs650 was ≤ 25%. These hits were picked from the drug library and used for further validation of IC50 determination and counter screening. IC50 values were determined in the same setup with varying inhibitor concentrations from 0.125 μM to 50 μM.

EHD2 = target: T2, EHD2 (Mus musculus, UniProt Q8BH64); assay: HPLC-based EHD2 ATPase assay; type: biochemical; details: 5 μM EHD2, 500 μg/ml Folch liposomes, 50 μM ATP, 30°C
T2 construct: Mouse EHD2 (Uniprot Q8BH64, residues 1–543); made in house
T2 sequence (Q8BH64 1-543): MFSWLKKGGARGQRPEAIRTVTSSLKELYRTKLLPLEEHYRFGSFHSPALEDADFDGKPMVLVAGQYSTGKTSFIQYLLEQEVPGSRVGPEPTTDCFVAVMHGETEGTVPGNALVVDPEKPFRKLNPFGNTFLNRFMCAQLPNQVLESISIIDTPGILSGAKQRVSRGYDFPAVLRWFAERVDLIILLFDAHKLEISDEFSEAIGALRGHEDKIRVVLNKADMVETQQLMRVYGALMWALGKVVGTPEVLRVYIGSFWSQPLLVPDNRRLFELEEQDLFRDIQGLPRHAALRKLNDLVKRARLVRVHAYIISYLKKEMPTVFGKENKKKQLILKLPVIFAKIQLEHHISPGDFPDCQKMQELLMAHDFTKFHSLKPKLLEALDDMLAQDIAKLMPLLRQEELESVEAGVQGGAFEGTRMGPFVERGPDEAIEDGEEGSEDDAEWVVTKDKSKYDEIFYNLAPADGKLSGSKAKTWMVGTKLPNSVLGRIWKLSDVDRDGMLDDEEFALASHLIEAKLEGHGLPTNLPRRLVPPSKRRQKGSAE
Method: ATPase assay was performed as mentioned above and at defined time points, reaction aliquots were diluted three times in reaction buffer (50 mM Tris, 150 mM NaCl, pH 7.5) and quickly flash frozen in liquid nitrogen. Samples were applied to an HPLC and nucleotides were separated with reversed phase column (C18 100*4.6 mm) equilibrated with running buffer containing 100 mM potassium phosphate buffer pH 6.5, 10 mM tetrabutylammonium bromide, 7.5% (v/v) acetonitrile. Adenine nucleotides were detected by absorption at 254 nm and quantified by integrating the corresponding nucleotide peaks and determining the ADP/ATP ratios.
Fig 5 Biochemical characterization of the primary hits. A One-hour time course of the MLG-based enzymatic ATPase assay in the presence of 50 μM inhibitor. EHD4^ΔN (blue curve) represents the positive control. B Primary hits were validated at 50 μM inhibitor concentration in an HPLC setup to exclude assay bias. ATPase assays done in A and B were in standard conditions. C Primary hits were tested against EHD2. Only MS8 had no effect on EHD2 ATPase activity. ATPase assay was done at an EHD2 concentration of 5 μM in the presence of 500 μg/ml Folch liposomes and 50 μM ATP in assay buffer at 30°C. D Changes in melting temperature of 5 μM EHD4^ΔN were studied in the presence of 50 μM inhibitor by thermal shift assay. MS1 and MS10 destabilized the protein, as evident by negative ΔTm, whereas MS8 had no effect on the stability of EHD4^ΔN. […] Shown is an IC50 curve plotted with an inhibitor concentration range from 0.125 μM to 50 μM. F MS8 substructure obtained by dissecting the diphenlyether bond. […]
Supplementary file pone.0302704.s004.tif: S4 Fig DNM1L and EHD2 enzymatic assay. […] B Initial velocities of DNM1L GTPase activity at 300 nM DNM1L, and, 500 μg/ml synthetic DOPS, T = 25°C and at different GTP concentrations were determined by a linear fit. C Km was determined by first calculating the amount of hydrolyzed GTP in (B) using the standard curve reported in S2C Fig and then plotting the initial rates of the reactions versus the substrate concentration. […]

DNM1L = target: T3, DNM1L (Homo sapiens, UniProt O00429); assay: MLG-based stimulated GTPase assay of DNM1L (counter-screen); type: biochemical; details: 300 nM DNM1L, 40 μM GTP, 25°C; inhibitor 0.125 μM to 50 μM (IC50 curve) or 10 μM (time course)
T3 construct: human DNM1L isoform 2 (UniProtID: O00429-3, residues 1–710); made in house
Method: Fig 5 Biochemical characterization of the primary hits. A One-hour time course of the MLG-based enzymatic ATPase assay in the presence of 50 μM inhibitor. EHD4^ΔN (blue curve) represents the positive control. B Primary hits were validated at 50 μM inhibitor concentration in an HPLC setup to exclude assay bias. ATPase assays done in A and B were in standard conditions. C Primary hits were tested against EHD2. Only MS8 had no effect on EHD2 ATPase activity. ATPase assay was done at an EHD2 concentration of 5 μM in the presence of 500 μg/ml Folch liposomes and 50 μM ATP in assay buffer at 30°C. D Changes in melting temperature of 5 μM EHD4^ΔN were studied in the presence of 50 μM inhibitor by thermal shift assay. MS1 and MS10 destabilized the protein, as evident by negative ΔTm, whereas MS8 had no effect on the stability of EHD4^ΔN. […] Shown is an IC50 curve plotted with an inhibitor concentration range from 0.125 μM to 50 μM. F MS8 substructure obtained by dissecting the diphenlyether bond. This substructure was used in our chemical search to have the highest diversity of the chemical space and the optimal coverage of chemical vectors to gain a structure-activity relationship.Data points represents the mean of two or more independent experiments and the error bar signifies the range or standard deviation. […] TEXT PRINTED IN THE PICTURE: (D) EHD4^ΔN: Tm = 44.5 °C DOUBTS OF THE COPYIST ABOUT THIS PICTURE: Panel D: 'EHD4^ΔN Tm = 44.5 °C' is the only printed result. It refers to the protein itself (reference melting temperature), not to one of the inhibitors MS1, MS8 or MS10, so it may not count as a result for a substance.
Supplementary file pone.0302704.s004.tif: S4 Fig DNM1L and EHD2 enzymatic assay. A EHD2 ATPase activity by an HPLC-based method. Assay conditions were 5 μM EHD2, 50 μM ATP and 1 mg/ml Folch liposomes at 30°C. […] C Km was determined by first calculating the amount of hydrolyzed GTP in (B) using the standard curve reported in S2C Fig and then plotting the initial rates of the reactions versus the substrate concentration. […]

EHD4^ΔN [2] = target: T1, EHD4^ΔN; assay: Thermal shift assay (TSA); type: binding; details: 5 μM EHD4ΔN, 50 μM inhibitor
Method: TSA was done in a CFX96 touch-real time PCR using a fluorescent dye from ThermoFisher Scientific (catalogue number 4461146). Reactions (5 μM EHD4^ΔN, 50 μM inhibitor and 1X dye) were prepared on ice, to a final volume of 50 μl and transferred to a 96 well PCR plate and then sealed with a plastic film. CFX96 was precooled to 4°C and the PCR plate was inserted. The fluorescence was measured from 4°C to 80°C with 0.5°C temperature steps. Protein melting temperature was calculated with the provided software (Bio-Rad) and plotted as bar diagram using GraphPad Prism 7.05.

[3] = compounds picked from the drug library, duplicates, inhibitor 0.125 μM to 50 μM, 200 nM EHD4ΔN, 30 μM ATP, 50 μg/ml DOPS

T3 sequence (O00429 1-710 isoform O00429-3): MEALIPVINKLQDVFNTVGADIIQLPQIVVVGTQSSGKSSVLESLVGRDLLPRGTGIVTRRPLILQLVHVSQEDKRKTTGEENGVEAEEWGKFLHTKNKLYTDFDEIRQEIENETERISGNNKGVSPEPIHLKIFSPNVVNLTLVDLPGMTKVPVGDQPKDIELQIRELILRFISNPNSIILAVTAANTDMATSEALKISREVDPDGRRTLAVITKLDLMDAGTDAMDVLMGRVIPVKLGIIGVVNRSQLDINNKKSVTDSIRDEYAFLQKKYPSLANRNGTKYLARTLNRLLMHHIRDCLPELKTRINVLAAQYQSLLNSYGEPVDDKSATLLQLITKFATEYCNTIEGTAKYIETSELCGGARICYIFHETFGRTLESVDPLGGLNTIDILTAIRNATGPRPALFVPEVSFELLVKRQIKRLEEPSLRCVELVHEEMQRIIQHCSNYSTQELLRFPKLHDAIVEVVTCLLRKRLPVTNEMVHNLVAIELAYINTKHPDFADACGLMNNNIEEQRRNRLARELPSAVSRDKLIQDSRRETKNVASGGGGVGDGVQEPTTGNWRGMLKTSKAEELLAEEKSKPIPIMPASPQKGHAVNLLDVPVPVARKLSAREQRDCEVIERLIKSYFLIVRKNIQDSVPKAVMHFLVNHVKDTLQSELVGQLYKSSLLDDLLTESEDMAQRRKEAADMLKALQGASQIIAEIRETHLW

IC50 (EHD4^ΔN [1]; [3])	IC50 (EHD4^ΔN [1]; repurchased compounds)	effect on EHD2 enzymatic (ATPase) activity (EHD2)	effect on stimulated GTPase activity of DNM1L (DNM1L)	effect on EHD4ΔN stability (thermal shift) (EHD4^ΔN [2])	ΔTm at 50 µM (EHD4^ΔN [2]; Tm of protein alone 44.5°C)	Structure (SMILES)
0.92 µM	2.4 µM	inhibited	did not interfere	destabilizing effect	-5 °C	O=C(CCCCCn1sc2ccccc2c1=O)Nc1ccccc1O [MS1, N-(2-hydroxyphenyl)-6-(3-oxo-2,3-dihydro-1,2-benzothiazol-2-yl)hexanamide]
3.8 µM	4.9 µM	no effect	did not inhibit	no such effect	–	Cc1csc(NC(=O)c2cccc(Oc3ccccc3)c2)n1 [MS8, N-(4-methyl-1,3-thiazol-2-yl)-3-phenoxybenzamide]
2.9 µM	4.8 µM	inhibited	did not interfere	diminished EHD4^ΔN stability	–	Oc1cc2c(cc1C(c1ccc(C(F)(F)F)cc1)N1CCOCC1)OCO2 (stereo not shown) [MS10, 6-(Morpholino(4-(Trifluormethyl)phenyl)methyl)-1,3-Benzodioxol-5-ol]
